This passage reports Variation results from ChEMBL document CHEMBL1135430, “Synthesis of 3,4-dihydro-2H-1,2,4-benzo-thiadiazine 1,1-dioxide derivatives as potential allosteric modulators of AMPA/kainate receptors” (2002).

The structures appear in SMILES notation.

The test is filed under the species Rattus norvegicus. Briefly: Variation of kainate-activated (KA) currents in primary cultures of cerebellar granule neurons at 1 mM using patch-clamp technique. It counts as functional.
`O=S1(=O)NC(C(F)(F)F)Nc2ccccc21` (stereo unspecified): the Variation was found to be 70%.

For `NS(=O)(=O)c1cc2c(cc1Cl)NC(C1CC3C=CC1C3)NS2(=O)=O` (stereo unspecified) [CYCLOTHIAZIDE], the Variation turned out to be 111%.

As to `O=S1(=O)NC(c2ccc(O)cc2)Nc2ccc(Cl)cc21` (stereo unspecified), the Variation is -51%.

With `CN(C)c1ccc(C2Nc3ccc(Cl)cc3S(=O)(=O)N2)cc1` (stereo unspecified), the Variation is on record as -1%.

On to `O=S1(=O)NC(CCl)Nc2ccc(Cl)cc21` (stereo unspecified), for which the Variation is -26%.

As for `CC1Nc2ccc(Cl)cc2S(=O)(=O)N1` (stereo unspecified), the Variation is on record as 115%.

As to `O=S1(=O)NC(C(F)(F)F)Nc2ccc(Cl)cc21` (stereo unspecified), the Variation is on record as 72%.

Regarding `O=S1(=O)NC(CCl)Nc2ccccc21` (stereo unspecified), the Variation is -22%.

`O=S1(=O)NC(c2ccc(O)cc2)Nc2ccccc21` (stereo unspecified): the Variation is listed as -60%.

On to `O=S1(=O)NC(c2ccccc2)Nc2ccccc21` (stereo unspecified), for which the Variation is -34%.

Turning to `CN(C)c1ccc(C2Nc3ccccc3S(=O)(=O)N2)cc1` (stereo unspecified), the Variation is listed as -1%.
